Test results reported in US20180084784A1, “METHODS AND COMPOSITIONS FOR CONTROLLING FUNGUS AND FUNGAL SPORES AND IMPROVING PLANT QUALITY” (BAYER CROPSCIENCE LP, priority 2016, published 2018).
Like-named read-outs stand apart in the source and are kept apart here.

Key:
[1] = test system: Pythium aphanidermatum zoospores
Method: Tests were conducted on fescue leaf blades. […] Two agar plugs containing Pythium aphanidermatum mycelium were placed in the jar containing the fescue leaves and allowed to incubate for 5 days.
A 1.0 ml aliquot was removed from each treatment and streaked onto potato dextrose agar. […] After five days the plates were examined for Pythium growth.

[2] = test system: Pythium aphanidermatum zoospores; test: Example 3: hydrogen peroxide alone and hydrolase enzyme alone, 12 days incubation; format: cell-based
Method: Tests were conducted on fescue leaf blades. […] Two agar plugs containing Pythium aphanidermatum mycelium were placed in the jar containing the fescue leaves and allowed to incubate for 12 days. Ten jars were used in total. […] Each of these jars was subject to the following hydrogen peroxide treatments: […] The remaining five jars were used for testing the effect of hydrolase enzyme alone. Each of these jars was subject to the following enzyme treatments: […] (2) 0.016% enzyme v/v concentration; (3) 0.0016% enzyme v/v concentration; […]

[3] = test system: Pythium aphanidermatum zoospores; test: Example 4: hydrogen peroxide alone and enzyme alone, 8 days incubation; format: cell-based
Method: Tests were conducted on fescue leaf blades. […] Eleven jars were used in total. […] The remaining six jars were used for testing the effect of hydrolase enzyme alone. Each of these jars was subject to the following enzyme treatments: (1) untreated; (2) 0.16% enzyme v/v concentration; (3) 0.088% enzyme v/v concentration; […] (5) 0.0142% enzyme v/v concentration; and (6) 0.0124% enzyme v/v concentration.

[4] = test system: Pythium aphanidermatum zoospores; test: Example 5: enzyme and hydrogen peroxide, alone and combined; format: cell-based
Method: (§1) Tests were conducted on fescue leaf blades. […] Two agar plugs containing Pythium aphanidermatum mycelium were placed in the jar containing the fescue leaves and allowed to incubate for 7 days.
(§2) A 1.0 ml aliquot was removed from each treatment and streaked onto potato dextrose agar.

[5] = test system: Pythium aphanidermatum zoospores; test: Example 6: enzyme and hydrogen peroxide, alone and combined; format: cell-based
Method: as §1, §2

[6] = test system: Pythium aphanidermatum zoospores; test: Example 8: enzyme and hydrogen peroxide, alone and combined; format: cell-based
Method: as §1, §2

[7] = test system: Pythium aphanidermatum zoospores; test: Example 9: enzyme and hydrogen peroxide, alone and combined; format: cell-based
Method: as §1
A 1.0 mL aliquot was removed from each treatment and streaked onto potato dextrose agar.

[8] = test system: Pythium aphanidermatum zoospores; test: Example 7: enzyme and hydrogen peroxide, confirmation of Example 6
Method: Tests were conducted on fescue leaf blades. Five one-inch long fescue leaf blades were placed in 100 ml water in a 250 ml jar and sterilized for 2 consecutive days for 20 min. Two agar plugs containing Pythium aphanidermatum mycelium were placed in the jar containing the fescue leaves and allowed to incubate for 7 days.
A 1.0 ml aliquot was removed from each treatment and streaked onto potato dextrose agar. […] After three days the plates were examined for Pythium growth.

[9] = 0.0003% hydrogen peroxide v/v concentration
[10] = 0.003% hydrogen peroxide v/v concentration
[11] = 0.03% hydrogen peroxide v/v concentration
[12] = 0.006% hydrogen peroxide v/v concentration
[13] = 0.012% hydrogen peroxide v/v concentration
[14] = 0.014% hydrogen peroxide v/v concentration
[15] = 0.016% hydrogen peroxide v/v concentration
[16] = 0.018% hydrogen peroxide v/v concentration
[17] = 0.02% hydrogen peroxide v/v concentration

## OO [hydrogen peroxide]
[1]; [9]
  % Reduction of Pythium: 0%
  Number of plates (4 reps) with Pythium growth after 5 days: 4
[1]; [10]
  % Reduction of Pythium: 0%
  Number of plates (4 reps) with Pythium growth after 5 days: 4
[1]; [11]
  % Reduction of Pythium: 75%
  Number of plates (4 reps) with Pythium growth after 5 days: 1
[1]; 0.3% hydrogen peroxide v/v concentration
  % Reduction of Pythium: 100%
[1]; 1.5% hydrogen peroxide v/v concentration
  % Reduction of Pythium: 100%
[2]; [10]
  % of Potato Dextrose Sugar Agar Plate Covered with Pythium: 100%
  Number of plates (4 reps) with Pythium growth after 3 days: 4
[2]; [12]
  % of Potato Dextrose Sugar Agar Plate Covered with Pythium: 50-90%
  Number of plates (4 reps) with Pythium growth after 3 days: 4
[2]; [13]
  % of Potato Dextrose Sugar Agar Plate Covered with Pythium: <50%
  Number of plates (4 reps) with Pythium growth after 3 days: 4
[2]; [11]
  % of Potato Dextrose Sugar Agar Plate Covered with Pythium: 0%
  Number of plates (4 reps) with Pythium growth after 3 days: 0
[2]; all tested concentrations of hydrogen peroxide except 0.03% v/v
  Pythium growth on plates: grew on all plates
[3]; [13]
  % of Potato Dextrose Sugar Agar Plate Covered with Pythium: 36.25%
[3]; [14]
  % of Potato Dextrose Sugar Agar Plate Covered with Pythium: 60%
[3]; [15]
  % of Potato Dextrose Sugar Agar Plate Covered with Pythium: 0%
[3]; [16]
  % of Potato Dextrose Sugar Agar Plate Covered with Pythium: 0%
[4]; [10]
  % of Potato Dextrose Sugar Agar Plate Covered with Pythium: 100%
  Number of plates (4 reps) with Pythium growth after 3 days: 4
[4]; [14]
  % of Potato Dextrose Sugar Agar Plate Covered with Pythium: 71.25%
  Number of plates (4 reps) with Pythium growth after 3 days: 4
[5]; [14]
  % of Potato Dextrose Sugar Agar Plate Covered with Pythium: 17.5%
  Number of plates (4 reps) with Pythium growth after 3 days: 1
[5]; [15]
  % of Potato Dextrose Sugar Agar Plate Covered with Pythium: 10%
  Number of plates (4 reps) with Pythium growth after 3 days: 1
[5]; [16]
  % of Potato Dextrose Sugar Agar Plate Covered with Pythium: 17.5%
  Number of plates (4 reps) with Pythium growth after 3 days: 1
[6]; [14]
  % of Potato Dextrose Sugar Agar Plate Covered with Pythium: 90%
  Number of plates (4 reps) with Pythium growth after 3 days: 4
[6]; [17]
  % of Potato Dextrose Sugar Agar Plate Covered with Pythium: 56.3%
  Number of plates (4 reps) with Pythium growth after 3 days: 4
[7]; [14]
  % of Potato Dextrose Sugar Agar Plate Covered with Pythium: 100%
  Number of plates (4 reps) with Pythium growth after 3 days: 4
[7]; [15]
  % of Potato Dextrose Sugar Agar Plate Covered with Pythium: 63.75%
  Number of plates (4 reps) with Pythium growth after 3 days: 4
[7]; [16]
  % of Potato Dextrose Sugar Agar Plate Covered with Pythium: 91.25%
  Number of plates (4 reps) with Pythium growth after 3 days: 4
[7]; [17]
  % of Potato Dextrose Sugar Agar Plate Covered with Pythium: 25%
  Number of plates (4 reps) with Pythium growth after 3 days: 4
[8]; [14]
  % of Potato Dextrose Sugar Agar Plate Covered with Pythium: 72.5%
  Number of plates (4 reps) with Pythium growth after 3 days: 4
[8]; [15]
  % of Potato Dextrose Sugar Agar Plate Covered with Pythium: 38.8%
  Number of plates (4 reps) with Pythium growth after 3 days: 4
[8]; [16]
  % of Potato Dextrose Sugar Agar Plate Covered with Pythium: 85.8%
  Number of plates (4 reps) with Pythium growth after 3 days: 4
